# Measured values taken from patent US8613927B2, “High affinity human antibodies to human nerve growth factor” (Regeneron Pharmaceuticals, Inc., priority 2007, dated 2013).
# How the values were obtained:
# mouse NGF (mNGF) = mouse NGF (mNGF) (Mus musculus, UniProt P01139); test: BIACORE binding affinity to mouse NGF
# Procedure: Antigen binding affinities of the antibodies for human NGF were determined by surface kinetics using a real-time biosensor surface plasmon resonance assay (BIACORE™). Antibodies were captured on either a goat, anti-human or anti-mouse IgG polyclonal antibody surface created by direct amine coupling of the capture antibody to a BIACORE™ chip. Various concentrations of human NGF were injected over the captured antibody surfaces while the association of the antigen to the antibody and the dissociation of the bound complex were monitored in real time. Kinetic analysis was performed to obtain the equilibrium dissociation constant (KD) and dissociation rate constant, and the latter was used to calculate the antigen/antibody complex dissociation t1/2 (Table 1).
# Human NGF (NGF) is highly homologous in amino acid sequence to mouse NGF (mNGF) and rat NGF (rNGF) with about 90% identity. The binding affinities of the antibodies to both mNGF and rNGF were determined as described above.
# The binding affinity of selected purified anti-NGF antibodies to mNGF and rNGF were also determined (Table 6).
# C57BL/6 mice = test: Post-operative incision pain model, thermal hyperalgesia in Hargreaves' test; type: in vivo, mouse; details: for mean percent change from Hargreaves baseline: Table 14; for Hargreaves' test result (thermal hyperalgesia): Table 16
# Procedure: Post-operative incision pain model. […] For the plantar incision surgery, C57BL/6 mice under isoflurane received an incision through skin, fascia and then isolating the underlying flexor muscle and bisecting vertically. After suture and recovery, the mice were tested for thermal hyperalgesia in the Hargreaves' test and for guarding behavior in the weight bearing test (model 600, IITC Life Science) for 5 days.
# Thermal hyperalgesia was studied in the Hargreaves' test and mechanical allodynia was tested in the von Frey test. In this latter test, mice were tested after being acclimated for 2-3 hours for 4 days in an apparatus with a wire mesh floor. The test was performed by applying, in ascending order, a series of von Frey hairs through the wire mesh onto the plantar surface of the hind paw with the incision. A response was considered positive if the paw was raised from the platform in response to application of the filament. Starting from the thinnest hair, each von Frey filament was applied up to five times until a response was observed.
# Chain of mouse NGF (mNGF) (P01139 122-241): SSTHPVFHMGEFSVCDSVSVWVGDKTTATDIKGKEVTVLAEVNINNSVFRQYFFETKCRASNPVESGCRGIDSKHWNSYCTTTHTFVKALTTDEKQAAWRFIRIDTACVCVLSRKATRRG
substance,measurement,setting,value
tanezumab [RN624],Kd,mouse NGF (mNGF); Table 5,1.4 pM
same,Kd,"mouse NGF (mNGF); Table 6, selected purified antibodies",1.4 pM
same,"reduction of post-operative pain vs vehicle, Hargreaves' test","C57BL/6 mice; 10 mg/kg s.c. 1 hr prior to incision, p<0.001-0.05",significantly reduced the post-operative pain
same,reversal of thermal hyperalgesia,"C57BL/6 mice; 25 mg/kg i.p. on day 1 post-surgery, by 72 hours, p<0.001-0.01",return to baseline was not observed
same,mean percent change from Hargreaves baseline,"C57BL/6 mice; 10 mg/kg s.c. 1 hr prior to incision, Baseline, ±SEM",0.00 ± 0.0%
same,mean percent change from Hargreaves baseline,"C57BL/6 mice; 10 mg/kg s.c. pre-incision, Day 1 after surgery",−62.5 ± 10.6%
same,mean percent change from Hargreaves baseline,"C57BL/6 mice; 10 mg/kg s.c. pre-incision, Day 2 after surgery",−55.2 ± 9.4%
same,mean percent change from Hargreaves baseline,"C57BL/6 mice; 10 mg/kg s.c. pre-incision, Day 3 after surgery",−5.3 ± 12.1%
same,mean percent change from Hargreaves baseline,"C57BL/6 mice; 10 mg/kg s.c. pre-incision, Day 4 after surgery",−6.4 ± 8.7%
same,mean percent change from Hargreaves baseline,"C57BL/6 mice; 10 mg/kg s.c. pre-incision, Day 5 after surgery",−5.3 ± 5.6%
same,Hargreaves' test result (thermal hyperalgesia),"C57BL/6 mice; 25 mg/kg i.p. on day 1 post-surgery, Baseline",0.0 ± 0.0
same,Hargreaves' test result (thermal hyperalgesia),"C57BL/6 mice; 25 mg/kg i.p., 6 hr after treatment",−68.1 ± 5.2
same,Hargreaves' test result (thermal hyperalgesia),"C57BL/6 mice; 25 mg/kg i.p., 23 hr after treatment",−40.5 ± 8.9
same,Hargreaves' test result (thermal hyperalgesia),"C57BL/6 mice; 25 mg/kg i.p., 47 hr after treatment",−37.6 ± 7.2
same,Hargreaves' test result (thermal hyperalgesia),"C57BL/6 mice; 25 mg/kg i.p., 72 hr after treatment",−47.2 ± 8.0
same,Hargreaves' test result (thermal hyperalgesia),"C57BL/6 mice; 25 mg/kg i.p., Day 1 (post-surgery, before injection)",−74.7 ± 4.3
